Test system: MV-4-11 cells
Assay: Gene expression microarray analysis (Affymetrix PrimeView) and GSEA
Type: cell-based, human
Set-up: RFU PODN (11730768_x_at) / Fold change /veh PODN (11730768_x_at) / RFU LINC00158 (11744669_a_at) / Fold change /veh LINC00158 (11744669_a_at) / RFU DUSP10 (11751237_a_at) / Fold change /veh DUSP10 (11751237_a_at) / RFU ID3 (11757404_x_at) / Fold change /veh ID3 (11757404_x_at) / RFU PLEKHG5 (11737974_s_at) / Fold change /veh PLEKHG5 (11737974_s_at) / RFU LRRC4B (11730491_at) / Fold change /veh LRRC4B (11730491_at) / RFU GIMAP4 (11747438_a_at) / Fold change /veh GIMAP4 (11747438_a_at) / RFU KRT8 (11758183_x_at) / Fold change /veh KRT8 (11758183_x_at) / RFU CNN1 (11734310_a_at) / Fold change /veh CNN1 (11734310_a_at) / RFU VPS37D (11726825_at) / Fold change /veh VPS37D (11726825_at) / RFU C10orf10 (11716522_x_at) / Fold change /veh C10orf10 (11716522_x_at) / RFU KIR2DL2 /// KIR2DL4 /// KIR2DL5A /// KIR2DL5B /// KIR2DS1 /// KIR2DS2 /// KIR2DS3 /// KIR2DS4 /// KIR3DL3 /// KIR3DL3 /// KIR3DS1 (11738374_at) / Fold change /veh KIR2DL2 /// KIR2DL4 /// KIR2DL5A /// KIR2DL5B /// KIR2DS1 /// KIR2DS2 /// KIR2DS3 /// KIR2DS4 /// KIR3DL3 /// KIR3DL3 /// KIR3DS1 (11738374_at) / RFU C1QL1 (11718748_at) / Fold change /veh C1QL1 (11718748_at) / RFU TMPRSS4 (11747572_a_at) / Fold change /veh TMPRSS4 (11747572_a_at) / RFU HAMP (11756126_x_at) / Fold change /veh HAMP (11756126_x_at) / RFU RNFT2 (11725882_a_at) / Fold change /veh RNFT2 (11725882_a_at) / RFU NR4A2 (11747474_a_at) / Fold change /veh NR4A2 (11747474_a_at) / RFU ABCC12 (11746883_a_at) / Fold change /veh ABCC12 (11746883_a_at) / RFU TMEM136 (11760407_x_at) / Fold change /veh TMEM136 (11760407_x_at) / RFU CLDN22 /// WWC2 (11732394_at) / Fold change /veh CLDN22 /// WWC2 (11732394_at) / RFU HLA-DPB1 (11760878_x_at) / Fold change /veh HLA-DPB1 (11760878_x_at) / RFU SPINT1 (11716480_a_at) / Fold change /veh SPINT1 (11716480_a_at) / RFU GAP43 (11754022_s_at) / Fold change /veh GAP43 (11754022_s_at) / RFU A4GNT (11735810_at) / Fold change /veh A4GNT (11735810_at) / RFU PRB3 (11715151_x_at) / Fold change /veh PRB3 (11715151_x_at) / RFU TUBB4B (11761932_at) / Fold change /veh TUBB4B (11761932_at) / RFU CAPN14 (11732068_a_at) / Fold change /veh CAPN14 (11732068_a_at) / RFU TMCC2 (11721928_a_at) / Fold change /veh TMCC2 (11721928_a_at) / RFU IRGQ (11745062_a_at) / Fold change /veh IRGQ (11745062_a_at) / RFU FAM174B (11720279_a_at) / Fold change /veh FAM174B (11720279_a_at) / RFU TMPRSS4 (11748680_a_at) / Fold change /veh TMPRSS4 (11748680_a_at) / RFU FAM212B (11763350_a_at) / Fold change /veh FAM212B (11763350_a_at) / RFU PLEKHG5 (11743358_a_at) / Fold change /veh PLEKHG5 (11743358_a_at) / RFU ZSCAN30 (11745921_a_at) / Fold change /veh ZSCAN30 (11745921_a_at) / RFU CMKLR1 (11741424_a_at) / Fold change /veh CMKLR1 (11741424_a_at) / RFU LOC101060620 /// MAPK8IP1 (11723275_at) / Fold change /veh LOC101060620 /// MAPK8IP1 (11723275_at) / RFU SPTSSB (11747773_x_at) / Fold change /veh SPTSSB (11747773_x_at) / RFU PRSS12 (11739890_at) / Fold change /veh PRSS12 (11739890_at) / RFU BIN1 (11741810_x_at) / Fold change /veh BIN1 (11741810_x_at) / RFU WNT11 (11732464_a_at) / Fold change /veh WNT11 (11732464_a_at) / RFU C10orf10 (11716521_a_at) / Fold change /veh C10orf10 (11716521_a_at) / RFU C5orf56 (11738089_at) / Fold change /veh C5orf56 (11738089_at) / RFU CYB561 (11721691_x_at) / Fold change /veh CYB561 (11721691_x_at) / RFU ANKRD19P (11752326_a_at) / Fold change /veh ANKRD19P (11752326_a_at) / RFU OR2T12 /// OR2T33 /// OR2T8 (11738714_s_at) / Fold change /veh OR2T12 /// OR2T33 /// OR2T8 (11738714_s_at) / RFU VCAN (11748164_a_at) / Fold change /veh VCAN (11748164_a_at) / RFU JSRP1 (11732532_at) / Fold change /veh JSRP1 (11732532_at) / RFU KRTAP10-11 (11738290_x_at) / Fold change /veh KRTAP10-11 (11738290_x_at) / RFU MYO3A (11730013_a_at) / Fold change /veh MYO3A (11730013_a_at) / RFU EBF3 (11725865_a_at) / Fold change /veh EBF3 (11725865_a_at) / RFU CAMK2N1 (11719241_x_at) / Fold change /veh CAMK2N1 (11719241_x_at) / RFU C5orf56 (11738088_a_at) / Fold change /veh C5orf56 (11738088_a_at) / RFU OLFML3 (11715873_a_at) / Fold change /veh OLFML3 (11715873_a_at) / RFU LOC100653217 /// NTM (11731650_a_at) / Fold change /veh LOC100653217 /// NTM (11731650_a_at) / RFU MAPK11 (11762145_a_at) / Fold change /veh MAPK11 (11762145_a_at) / RFU FIZ1 (11724087_x_at) / Fold change /veh FIZ1 (11724087_x_at) / RFU OASL (11726364_x_at) / Fold change /veh OASL (11726364_x_at) / RFU SOX15 (11748057_x_at) / Fold change /veh SOX15 (11748057_x_at) / RFU CD79A (11719716_a_at) / Fold change /veh CD79A (11719716_a_at) / RFU HIST1H1D (11736915_at) / Fold change /veh HIST1H1D (11736915_at) / RFU CASKIN2 (11723855_a_at) / Fold change /veh CASKIN2 (11723855_a_at) / RFU LOC730098 (11760151_x_at) / Fold change /veh LOC730098 (11760151_x_at) / RFU OR4N2 (11742367_at) / Fold change /veh OR4N2 (11742367_at) / RFU PRRT2 (11749266_a_at) / Fold change /veh PRRT2 (11749266_a_at) / RFU SNX32 (11753110_a_at) / Fold change /veh SNX32 (11753110_a_at) / RFU CDHR5 (11726645_a_at) / Fold change /veh CDHR5 (11726645_a_at) / RFU RCAN1 (11760418_a_at) / Fold change /veh RCAN1 (11760418_a_at) / RFU FAM167A (11723789_a_at) / Fold change /veh FAM167A (11723789_a_at) / RFU FAM26E (11764081_at) / Fold change /veh FAM26E (11764081_at) / RFU ISYNA1 (11749810_s_at) / Fold change /veh ISYNA1 (11749810_s_at) / RFU ACY1 (11761880_at) / Fold change /veh ACY1 (11761880_at) / RFU 11764098_at / Fold change /veh 11764098_at / RFU SAMD14 (11745864_x_at) / Fold change /veh SAMD14 (11745864_x_at) / RFU NPB (11741838_a_at) / Fold change /veh NPB (11741838_a_at) / RFU TMPRSS6 (11731388_a_at) / Fold change /veh TMPRSS6 (11731388_a_at) / RFU KRTAP10-2 (11738614_at) / Fold change /veh KRTAP10-2 (11738614_at) / RFU ARHGAP8 /// PRR5-ARHGAP8 (11727945_x_at) / Fold change /veh ARHGAP8 /// PRR5-ARHGAP8 (11727945_x_at) / RFU KRTAP5-7 /// NADSYN1 (11734609_at) / Fold change /veh KRTAP5-7 /// NADSYN1 (11734609_at) / RFU RASL12 (11751679_a_at) / Fold change /veh RASL12 (11751679_a_at) / RFU CDKN2B (11736163_a_at) / Fold change /veh CDKN2B (11736163_a_at) / RFU PRF1 (11729649_at) / Fold change /veh PRF1 (11729649_at) / RFU, ZNF638 /// ZNF638-IT1 / Fold change vs veh, ZNF638 /// ZNF638-IT1 / RFU, PANK3 / Fold change vs veh, PANK3 / RFU, SH3YL1 / Fold change vs veh, SH3YL1 / RFU, ZEB2 / Fold change vs veh, ZEB2 / RFU, NRIP1 / Fold change vs veh, NRIP1 / RFU, PTTG1IP / Fold change vs veh, PTTG1IP / RFU, CAPN2 / Fold change vs veh, CAPN2 / RFU, MED14 / Fold change vs veh, MED14 / RFU, SNORA58 / Fold change vs veh, SNORA58 / RFU, C1orf63 / Fold change vs veh, C1orf63 / RFU, LRRFIP1 / Fold change vs veh, LRRFIP1 / RFU, NDUFAF7 / Fold change vs veh, NDUFAF7 / RFU, SLC12A2 / Fold change vs veh, SLC12A2 / RFU, IBTK / Fold change vs veh, IBTK / RFU, ESF1 / Fold change vs veh, ESF1 / Fold change vs veh, TMEM50B / RFU, TAOK1 / Fold change vs veh, TAOK1 / RFU, ACBD3 / Fold change vs veh, ACBD3 / RFU, TMA16 / Fold change vs veh, TMA16 / RFU, RWDD3 / Fold change vs veh, RWDD3 / RFU, BCAT1 / Fold change vs veh, BCAT1 / RFU, EDEM3 / Fold change vs veh, EDEM3 / RFU, TMEM33 / Fold change vs veh, TMEM33 / RFU, WDR75 / Fold change vs veh, WDR75 / RFU, AHCTF1 / Fold change vs veh, AHCTF1 / RFU, TFRC / Fold change vs veh, TFRC / RFU, ZDHHC17 / Fold change vs veh, ZDHHC17 / RFU, NOM1 / Fold change vs veh, NOM1 / RFU, ARL8B / Fold change vs veh, ARL8B / RFU, ZBTB11 / Fold change vs veh, ZBTB11 / RFU, TAMM41 / Fold change vs veh, TAMM41 / RFU, KIAA1704 /// LOC100996395 / Fold change vs veh, KIAA1704 /// LOC100996395 / RFU, ING1 / Fold change vs veh, ING1 / RFU, TRMT61B / Fold change vs veh, TRMT61B / RFU, FUBP3 / Fold change vs veh, FUBP3 / RFU, TP53 / Fold change vs veh, TP53 / RFU, TNKS2 / Fold change vs veh, TNKS2 / RFU, ZFP14 / Fold change vs veh, ZFP14 / RFU, ACTR2 / Fold change vs veh, ACTR2 / RFU, PPP3R1 / Fold change vs veh, PPP3R1 / RFU, PIK3R1 / Fold change vs veh, PIK3R1 / RFU, HNRNPA1 / Fold change vs veh, HNRNPA1 / RFU, RNF170 / Fold change vs veh, RNF170 / RFU, ZNF28 / Fold change vs veh, ZNF28 / RFU, RNGTT / Fold change vs veh, RNGTT / RFU, OGT / Fold change vs veh, OGT / RFU, BRD1 / Fold change vs veh, BRD1 / RFU, MARS / Fold change vs veh, MARS / RFU, ZNF655 / Fold change vs veh, ZNF655 / RFU, FAHD1 / Fold change vs veh, FAHD1 / RFU, BDP1 / Fold change vs veh, BDP1 / RFU, LRRCC1 / Fold change vs veh, LRRCC1 / RFU, ARID1A / Fold change vs veh, ARID1A / RFU, ZNF146 / Fold change vs veh, ZNF146 / RFU, ZNF330 / Fold change vs veh, ZNF330 / RFU, GPN3 / Fold change vs veh, GPN3 / RFU, C9orf123 / Fold change vs veh, C9orf123 / RFU, N4BP2L2 / Fold change vs veh, N4BP2L2 / RFU, ARFIP1 / Fold change vs veh, ARFIP1 / RFU, FAM179B / Fold change vs veh, FAM179B / RFU, BCL10 / Fold change vs veh, BCL10 / RFU, UHRF1BP1L / Fold change vs veh, UHRF1BP1L / RFU, BET1 / Fold change vs veh, BET1 / RFU, CNOT2 / Fold change vs veh, CNOT2 / RFU, ZNF268 / Fold change vs veh, ZNF268 / Fold change vs veh, ZNF507 / RFU, DGCR2 / Fold change vs veh, DGCR2 / RFU, WDSUB1 / Fold change vs veh, WDSUB1 / Fold change vs veh, HSP90B1 /// MIR3652 / RFU, ADSS / Fold change vs veh, ADSS / RFU, GK / Fold change vs veh, GK / RFU, ZNF148 / Fold change vs veh, ZNF148 / RFU, TAF9 / Fold change vs veh, TAF9 / RFU, SLC1A5 / Fold change vs veh, SLC1A5 / RFU, SLMO2 / Fold change vs veh, SLMO2 / RFU, ABCC4 / Fold change vs veh, ABCC4 / RFU, LOC101060439 /// RAP1B / Fold change vs veh, LOC101060439 /// RAP1B / RFU, RFX7 / Fold change vs veh, RFX7 / RFU, GTPBP10 / Fold change vs veh, GTPBP10 / RFU, CNEP1R1 / Fold change vs veh, CNEP1R1 / RFU, BIVM-ERCC5 /// ERCC5 / Fold change vs veh, BIVM-ERCC5 /// ERCC5 / RFU, ILF3 / Fold change vs veh, ILF3 / RFU 11762660_at / Fold change /veh 11762660_at / RFU VCAN (11757783_s_at) / Fold change /veh VCAN (11757783_s_at) / RFU DDX43 (11728927_at) / Fold change /veh DDX43 (11728927_at) / RFU KRT8 (11758188_x_at) / Fold change /veh KRT8 (11758188_x_at) / RFU NKD1 (11759106_at) / Fold change /veh NKD1 (11759106_at) / RFU SRD5A1 (11742802_a_at) / Fold change /veh SRD5A1 (11742802_a_at) / RFU TPSAB1 /// TPSB2 (11721975_s_at) / Fold change /veh TPSAB1 /// TPSB2 (11721975_s_at) / RFU GSTM3 (11746129_a_at) / Fold change /veh GSTM3 (11746129_a_at) / RFU IL23R (11737362_x_at) / Fold change /veh IL23R (11737362_x_at) / RFU TMEM51 (11727254_a_at) / Fold change /veh TMEM51 (11727254_a_at) / RFU PIWIL2 (11732686_x_at) / Fold change /veh PIWIL2 (11732686_x_at) / RFU ORM1 (11744905_x_at) / Fold change /veh ORM1 (11744905_x_at) / RFU CCDC152 (11743942_at) / Fold change /veh CCDC152 (11743942_at) / RFU ECM1 (11717891_a_at) / Fold change /veh ECM1 (11717891_a_at) / RFU IL23R (11748794_a_at) / Fold change /veh IL23R (11748794_a_at) / RFU TNFAIP8L3 (11732012_x_at) / Fold change /veh TNFAIP8L3 (11732012_x_at) / RFU MBOAT4 (11741988_at) / Fold change /veh MBOAT4 (11741988_at) / RFU 11764193_at / Fold change /veh 11764193_at / RFU TMEM53 (11763286_at) / Fold change /veh TMEM53 (11763286_at) / RFU MAGEB2 (11727129_at) / Fold change /veh MAGEB2 (11727129_at) / RFU TMEM200A (11744735_a_at) / Fold change /veh TMEM200A (11744735_a_at) / RFU CCDC152 (11751479_a_at) / Fold change /veh CCDC152 (11751479_a_at) / RFU FAM211A (11726209_a_at) / Fold change /veh FAM211A (11726209_a_at) / RFU RGS16 (11746705_a_at) / Fold change /veh RGS16 (11746705_a_at) / RFU VCAN (11755009_s_at) / Fold change /veh VCAN (11755009_s_at) / RFU RHOB (11743442_s_at) / Fold change /veh RHOB (11743442_s_at) / RFU RGS16 (11720943_a_at) / Fold change /veh RGS16 (11720943_a_at) / RFU RGS16 (11720944_at) / Fold change /veh RGS16 (11720944_at) / RFU, VPS4B / Fold change vs veh, VPS4B / RFU, CREB1 / Fold change vs veh, CREB1 / RFU, DNAJC13 / Fold change vs veh, DNAJC13 / RFU, GNAQ / Fold change vs veh, GNAQ / RFU, CDK5R1 / Fold change vs veh, CDK5R1 / RFU, ZRANB3 / Fold change vs veh, ZRANB3 / RFU, CUL4A / Fold change vs veh, CUL4A / RFU, CCNY / Fold change vs veh, CCNY / RFU, UFL1 / Fold change vs veh, UFL1 / RFU, COG3 / Fold change vs veh, COG3 / RFU, DIAPH2 / Fold change vs veh, DIAPH2 / RFU, SKA2 / Fold change vs veh, SKA2 / RFU, AFF3 / Fold change vs veh, AFF3 / RFU, LMF1 / Fold change vs veh, LMF1 / RFU, IPO11 / Fold change vs veh, IPO11 / RFU, DFFB / Fold change vs veh, DFFB / RFU, FOXP1 / Fold change vs veh, FOXP1 / RFU, CARD8 / Fold change vs veh, CARD8 / RFU, STRN3 / Fold change vs veh, STRN3 / RFU, ADK / Fold change vs veh, ADK / RFU, RASSF2 / Fold change vs veh, RASSF2 / RFU, WIPF1 / Fold change vs veh, WIPF1 / RFU, LARP1B / Fold change vs veh, LARP1B / RFU, RASA1 / Fold change vs veh, RASA1 / RFU, RB1 / Fold change vs veh, RB1 / RFU, PPFIA1 / Fold change vs veh, PPFIA1 / RFU, MAT2A / Fold change vs veh, MAT2A / RFU, CCT5 / Fold change vs veh, CCT5 / RFU, WDR92 / Fold change vs veh, WDR92 / RFU, CUX1 / Fold change vs veh, CUX1 / RFU, TTC7A / Fold change vs veh, TTC7A / RFU, TMEM135 / Fold change vs veh, TMEM135 / RFU, DEPTOR / Fold change vs veh, DEPTOR / RFU, CPM / Fold change vs veh, CPM / RFU, DNAJB6 / Fold change vs veh, DNAJB6 / RFU, CACNA2D3 / Fold change vs veh, CACNA2D3 / RFU, DTX4 / Fold change vs veh, DTX4 / RFU, TFCP2 / Fold change vs veh, TFCP2 / RFU, GMCL1 /// GMCL1P1 / Fold change vs veh, GMCL1 /// GMCL1P1 / RFU, AEBP2 / Fold change vs veh, AEBP2 / RFU, SNHG1 /// SNORD22 /// SNORD25 /// SNORD26 /// SNORD27 /// SNORD28 /// SNORD29 /// SNORD31 / Fold change vs veh, SNHG1 /// SNORD22 /// SNORD25 /// SNORD26 /// SNORD27 /// SNORD28 /// SNORD29 /// SNORD31 / Fold change (Aza/veh), C12orf56 (ProbeSet 11735607_a_at) / Fold change (ACY-1035/veh), C12orf56 (ProbeSet 11735607_a_at) / Fold change (Aza/veh), FGFR1OP (ProbeSet 11751329_s_at) / Fold change (ACY-1035/veh), FGFR1OP (ProbeSet 11751329_s_at) / Fold change (Aza/veh), VPS36 (ProbeSet 11739960_a_at) / Fold change (ACY-1035/veh), VPS36 (ProbeSet 11739960_a_at) / RFU SYPL1 (11715823_x_at) / Fold change /veh SYPL1 (11715823_x_at) / RFU IGFBP7 (11715501_s_at) / Fold change /veh IGFBP7 (11715501_s_at) / RFU REEP3 (11722064_at) / Fold change /veh REEP3 (11722064_at) / RFU IGLL1 (11728026_x_at) / Fold change /veh IGLL1 (11728026_x_at): dose or concentration left out as unconfirmed
Conditions: ProbeSet 11716931_at; LIST B

## Nc1ccc(-c2cccs2)cc1NC(=O)c1ccc2c(c1)cc(C1CC1)n2CCN1CCOCC1 [ACY-1035]
  RFU, DGCR2: 215.86 RFU

— publication PMC5218480 (PLoS ONE, 2017)
